The values below come from patent US12187723B2 (BRISTOL-MYERS SQUIBB COMPANY, priority 2019, dated 2025).

One assay has as its target T1, human TLR7 (Homo sapiens, UniProt Q9NYK1).
T1 construct: host or cells: HEK-Blue cells
T1 sequence (Q9NYK1 27-1049): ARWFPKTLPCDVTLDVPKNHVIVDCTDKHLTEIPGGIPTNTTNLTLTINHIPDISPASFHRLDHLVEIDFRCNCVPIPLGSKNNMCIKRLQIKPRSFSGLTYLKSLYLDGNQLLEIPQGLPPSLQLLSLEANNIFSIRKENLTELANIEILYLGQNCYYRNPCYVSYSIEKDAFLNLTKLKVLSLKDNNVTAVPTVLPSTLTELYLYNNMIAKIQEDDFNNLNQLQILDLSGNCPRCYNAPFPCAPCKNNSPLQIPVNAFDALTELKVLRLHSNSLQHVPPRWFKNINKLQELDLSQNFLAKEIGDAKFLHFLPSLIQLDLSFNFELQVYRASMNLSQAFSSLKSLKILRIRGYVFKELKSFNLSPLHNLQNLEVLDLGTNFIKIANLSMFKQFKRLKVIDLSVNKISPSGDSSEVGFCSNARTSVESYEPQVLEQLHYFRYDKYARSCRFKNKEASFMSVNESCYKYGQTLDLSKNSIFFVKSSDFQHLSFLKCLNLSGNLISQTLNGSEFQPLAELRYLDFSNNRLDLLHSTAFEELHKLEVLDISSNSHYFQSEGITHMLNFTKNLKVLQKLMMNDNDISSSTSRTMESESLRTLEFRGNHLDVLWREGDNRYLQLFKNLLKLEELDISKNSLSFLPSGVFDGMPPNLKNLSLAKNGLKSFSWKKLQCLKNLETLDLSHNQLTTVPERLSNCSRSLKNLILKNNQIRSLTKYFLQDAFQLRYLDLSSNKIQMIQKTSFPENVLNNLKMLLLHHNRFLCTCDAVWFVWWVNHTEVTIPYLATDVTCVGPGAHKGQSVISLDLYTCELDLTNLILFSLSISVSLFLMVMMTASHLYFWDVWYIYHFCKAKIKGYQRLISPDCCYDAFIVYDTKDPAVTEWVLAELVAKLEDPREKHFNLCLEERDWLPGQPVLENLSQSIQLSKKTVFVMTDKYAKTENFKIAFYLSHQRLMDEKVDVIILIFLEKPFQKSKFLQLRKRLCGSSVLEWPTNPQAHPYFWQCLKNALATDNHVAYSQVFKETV
Description: TLR7 inhibition reporter assay (HEK-Blue SEAP). The class given is cell-based. As to conditions: HEK-Blue cells overexpressing human TLR7, gardiquimod 7.5 μM, 22 hour incubation. The procedure, abridged:
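SEAP readout via HEK-Blue Detection medium after 22 h at 37 °C, 5% CO2 defines inhibition, normalized between agonist-plus-DMSO wells and a reference inhibitor. Compound dose range 0.05 nM–50 μM; TLR7 cells at 15,000/well (gardiquimod), TLR8 at 20,000/well (R848).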

The next assay has as its target T2, human TLR8 (Homo sapiens, UniProt Q9NR97).
T2 construct: host or cells: HEK-Blue cells
T2 sequence (Q9NR97 27-1041): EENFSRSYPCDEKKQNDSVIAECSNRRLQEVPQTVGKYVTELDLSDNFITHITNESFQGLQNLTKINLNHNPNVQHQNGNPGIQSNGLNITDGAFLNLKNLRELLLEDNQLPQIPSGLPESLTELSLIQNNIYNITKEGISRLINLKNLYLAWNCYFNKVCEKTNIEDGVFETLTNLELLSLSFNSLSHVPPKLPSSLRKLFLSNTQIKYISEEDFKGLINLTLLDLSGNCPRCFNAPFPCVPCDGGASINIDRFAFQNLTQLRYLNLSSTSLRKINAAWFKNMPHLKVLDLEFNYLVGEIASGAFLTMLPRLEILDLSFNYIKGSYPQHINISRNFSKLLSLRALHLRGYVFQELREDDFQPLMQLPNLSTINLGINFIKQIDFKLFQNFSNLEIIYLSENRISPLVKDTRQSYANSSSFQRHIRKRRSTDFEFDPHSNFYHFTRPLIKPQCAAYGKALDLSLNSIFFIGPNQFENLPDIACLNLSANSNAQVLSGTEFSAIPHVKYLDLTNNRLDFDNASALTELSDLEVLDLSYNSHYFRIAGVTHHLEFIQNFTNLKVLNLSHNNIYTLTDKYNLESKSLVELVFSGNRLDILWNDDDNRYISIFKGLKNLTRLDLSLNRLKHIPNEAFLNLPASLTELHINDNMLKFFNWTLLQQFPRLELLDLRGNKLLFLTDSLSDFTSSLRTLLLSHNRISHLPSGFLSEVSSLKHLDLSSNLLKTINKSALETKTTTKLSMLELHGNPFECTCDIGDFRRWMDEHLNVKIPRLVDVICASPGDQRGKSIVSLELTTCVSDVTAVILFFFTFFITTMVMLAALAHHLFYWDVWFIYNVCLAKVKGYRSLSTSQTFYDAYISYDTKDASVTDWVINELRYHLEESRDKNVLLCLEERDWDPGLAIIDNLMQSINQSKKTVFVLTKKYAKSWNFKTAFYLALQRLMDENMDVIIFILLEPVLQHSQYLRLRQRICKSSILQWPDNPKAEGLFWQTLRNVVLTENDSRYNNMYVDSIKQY
Description: TLR8 inhibition reporter assay (HEK-Blue SEAP). It counts as cell-based. The following applies: HEK-Blue cells overexpressing human TLR8, R848 15.9 μM, 22 hour incubation. In outline:
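HEK-Blue cells overexpressing human TLR7, TLR8 or TLR9 carry a SEAP reporter driven by NF-κB/AP-1 sites. Compounds (0.05 nM–50 μM) were preincubated 30 min at room temperature, then cells were stimulated with gardiquimod 7.5 μM (TLR7), R848 15.9 μM (TLR8) or ODN2006 5 nM (TLR9) for 22 h at 37 °C.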
(Reporter assays use an easily measured gene product as a stand-in for the process of interest.)

A value given as a limit tells only on which side of the number the result lay.

One may read the IC50 as the concentration that inhibits the measured activity by half. A low value points to greater potency in that assay. Turning to `COc1c(C)c(-c2cc3[nH]c(=O)n(C4CCC(N5CC(F)C5)CC4)c3cc2C(C)C)cn2ncnc12` (single isomer, unassigned) [Example 264, 1-(4-(3-fluoroazetidin-1-yl)cyclohexyl)-6-isopropyl-5-(8-methoxy-7-methyl-[1,2,4]triazolo[1,5-a]pyridin-6-yl)-1,3-dihydro-2H-benzo[d]imidazol-2-one], the half-inhibitory concentration (IC50) against human TLR7 was determined as 28.4 nM; on human TLR8, 5.93 nM.

Take `Cc1c(-c2cc3[nH]c(=O)n(C4CCC(N5CCC6(CC5)COC6)CC4)c3cc2C(C)C)cn2ncnc2c1C` (single isomer, unassigned) [Example 283, 1-(4-(2-oxa-7-azaspiro[3.5]nonan-7-yl)cyclohexyl)-5-(7,8-dimethyl-[1,2,4]triazolo[1,5-a]pyridin-6-yl)-6-isopropyl-1,3-dihydro-2H-benzo[d]imidazol-2-one]: the IC50 was 1.82 nM against human TLR7 and 0.09 nM on human TLR8.

As to `Cc1c(-c2cc3[nH]c(=O)n(C4CCC(N5CCC6(CC5)COC6)CC4)c3cc2C(C)C)cn2ncnc2c1C` (single isomer, unassigned) [Example 282, 1-(4-(2-oxa-7-azaspiro[3.5]nonan-7-yl)cyclohexyl)-5-(7,8-dimethyl-[1,2,4]triazolo[1,5-a]pyridin-6-yl)-6-isopropyl-1,3-dihydro-2H-benzo[d]imidazol-2-one], the values for the IC50 against human TLR7 and on human TLR8 were 10.1 nM and 0.51 nM, respectively.

With `Cc1c(-c2cc3[nH]c(=O)n(C4CCC(N5CCCOCC5)CC4)c3cc2C(C)C)cn2ncnc2c1C` (stereo not drawn) [Example 272, 1-(4-(1,4-oxazepan-4-yl)cyclohexyl)-5-(7,8-dimethyl-[1,2,4]triazolo[1,5-a]pyridin-6-yl)-6-isopropyl-1,3-dihydro-2H-benzo[d]imidazol-2-one], the half-maximal inhibitory concentration (IC50) turned out to be 5.37 nM at human TLR7 and 0.49 nM against human TLR8.

Turning to `COc1cc(-c2cc3[nH]c(=O)n(C4CCC(N5CC[C@H](F)C5)CC4)c3cc2C(C)C)cn2ncnc12` (stereo partly drawn) [Example 287, (S)-1-(4-(3-fluoropyrrolidin-1-yl)cyclohexyl)-6-isopropyl-5-(8-methoxy-[1,2,4]triazolo[1,5-a]pyridin-6-yl)-1,3-dihydro-2H-benzo[d]imidazol-2-one], the IC50 on human TLR7 is 1.53 nM; against human TLR8 it was 1.66 nM.

Regarding `COc1cc(-c2ccc3c(c2)[nH]c(=O)n3C2CCNCC2)cn2ncnc12` [1 EI, 5-(8-methoxy-[1,2,4]triazolo[1,5-a]pyridin-6-yl)-1-(piperidin-4-yl)-1,3-dihydro-2H-benzo[d]imidazol-2-one], the 50% inhibitory concentration (IC50) against human TLR7 and against human TLR8 was above 3130 nM in each case.

For the compound `COc1c(C)c(-c2cc3[nH]c(=O)n(C4CCC(N5CCC6(CC5)COC6)CC4)c3cc2C(C)C)cn2ncnc12` (single isomer, unassigned) [Example 267, 1-(4-(2-oxa-7-azaspiro[3.5]nonan-7-yl)cyclohexyl)-6-isopropyl-5-(8-methoxy-7-methyl-[1,2,4]triazolo[1,5-a]pyridin-6-yl)-1,3-dihydro-2H-benzo[d]imidazol-2-one], the values for the IC50 against human TLR7 and against human TLR8 were 2.1 nM and 0.12 nM, respectively.

Regarding `COc1c(C)c(-c2cc3[nH]c(=O)n(C4CCC(N5CCCOCC5)CC4)c3cc2C(C)C)cn2ncnc12` (single isomer, unassigned) [Example 262, 1-(4-(1,4-oxazepan-4-yl)cyclohexyl)-6-isopropyl-5-(8-methoxy-7-methyl-[1,2,4]triazolo[1,5-a]pyridin-6-yl)-1,3-dihydro-2H-benzo[d]imidazol-2-one], the concentration for half-maximal inhibition (IC50) against human TLR7 was found to be 2.3 nM; on human TLR8 it was 0.68 nM.

As to `COc1c(C)c(-c2cc3[nH]c(=O)n(C4CCC(N5CC6(COC6)C5)CC4)c3cc2C(C)C)cn2ncnc12` (single isomer, unassigned) [Example 269, 1-(4-(2-oxa-6-azaspiro[3.3]heptan-6-yl)cyclohexyl)-6-isopropyl-5-(8-methoxy-7-methyl-[1,2,4]triazolo[1,5-a]pyridin-6-yl)-1,3-dihydro-2H-benzo[d]imidazol-2-one], the results for the IC50 against human TLR7 and against human TLR8 were 5.73 nM and 1.58 nM, respectively.

Consider `Cc1c(-c2cc3[nH]c(=O)n(C4CCC(N5CCCOCC5)CC4)c3cc2C(C)C)cn2ncnc2c1C` (stereo not drawn) [Example 271, 1-(4-(1,4-oxazepan-4-yl)cyclohexyl)-5-(7,8-dimethyl-[1,2,4]triazolo[1,5-a]pyridin-6-yl)-6-isopropyl-1,3-dihydro-2H-benzo[d]imidazol-2-one], for which the figures for the half-maximal inhibitory concentration (IC50) against human TLR7 and against human TLR8 were 6.06 nM and 0.36 nM, respectively.

As for `COc1cc(-c2cc3[nH]c(=O)n(C4CCC(N5CCC(S(C)(=O)=O)C5)CC4)c3cc2C(C)C)cn2ncnc12` (single isomer, unassigned) [Example 289, 6-isopropyl-5-(8-methoxy-[1,2,4]triazolo[1,5-a]pyridin-6-yl)-1-(4-(3-(methylsulfonyl)pyrrolidin-1-yl)cyclohexyl)-1,3-dihydro-2H-benzo[d]imidazol-2-one], the figures for the IC50 against human TLR7 and on human TLR8 were 11.9 nM and 4.44 nM, respectively.

With `COC[C@@H]1CCN(C2CCC(n3c(=O)[nH]c4cc(-c5cc(OC)c6ncnn6c5)c(C(C)C)cc43)CC2)C1` (single isomer, unassigned) [Example 291], the figures for the half-inhibitory concentration (IC50) against human TLR7 and at human TLR8 were 1.71 nM and 1.86 nM, respectively.

In the case of `COc1cc(-c2cc3[nH]c(=O)n(C4CCC(N5CCC(F)(F)C5)CC4)c3cc2C(C)C)cn2ncnc12` (single isomer, unassigned) [Example 294, 1-(4-(3,3-difluoropyrrolidin-1-yl)cyclohexyl)-6-isopropyl-5-(8-methoxy-[1,2,4]triazolo[1,5-a]pyridin-6-yl)-1,3-dihydro-2H-benzo[d]imidazol-2-one], the IC50 on human TLR7 turned out to be 1.2 nM; against human TLR8 it was 3.14 nM.

As for `Cc1cc2c(cc1-c1cc(C)c3ncnn3c1)[nH]c(=O)n2[C@H]1CC[C@@H](NC2CCOCC2)CC1` [Example 30, 6-methyl-5-(8-methyl-[1,2,4]triazolo[1,5-a]pyridin-6-yl)-1-((1s,4s)-4-((tetrahydro-2H-pyran-4-yl)amino)cyclohexyl)-1,3-dihydro-2H-benzo[d]imidazol-2-one], the figures for the half-inhibitory concentration (IC50) against human TLR7 and against human TLR8 were 8.23 nM and 3.12 nM, respectively.

As for `Cc1cc2c(cc1-c1cc(C)c3ncnn3c1)[nH]c(=O)n2C1CCCNC1` (stereo not drawn) [1 EC, 6-methyl-5-(8-methyl-[1,2,4]triazolo[1,5-a]pyridin-6-yl)-1-(piperidin-3-yl)-1,3-dihydro-2H-benzo[d]imidazol-2-one], the IC50 was 105 nM against human TLR7 and 22.5 nM against human TLR8.
